Values quoted from earlier work as cited in US6479236B2, “Genotyping the human UDP-glucuronosyltransferase 1 (UGT1) gene” (DNA Sciences Laboratories, Inc., priority 1998, dated 2002).

Key:
[1] = biological target: UGT1*6 (Homo sapiens, UniProt P19224); conditions: substrate of UGT1*6
[2] = biological target: T1, UGT1*7 (Homo sapiens, UniProt O60656); conditions: substrate of UGT1*7
T1 sequence (O60656 26-530): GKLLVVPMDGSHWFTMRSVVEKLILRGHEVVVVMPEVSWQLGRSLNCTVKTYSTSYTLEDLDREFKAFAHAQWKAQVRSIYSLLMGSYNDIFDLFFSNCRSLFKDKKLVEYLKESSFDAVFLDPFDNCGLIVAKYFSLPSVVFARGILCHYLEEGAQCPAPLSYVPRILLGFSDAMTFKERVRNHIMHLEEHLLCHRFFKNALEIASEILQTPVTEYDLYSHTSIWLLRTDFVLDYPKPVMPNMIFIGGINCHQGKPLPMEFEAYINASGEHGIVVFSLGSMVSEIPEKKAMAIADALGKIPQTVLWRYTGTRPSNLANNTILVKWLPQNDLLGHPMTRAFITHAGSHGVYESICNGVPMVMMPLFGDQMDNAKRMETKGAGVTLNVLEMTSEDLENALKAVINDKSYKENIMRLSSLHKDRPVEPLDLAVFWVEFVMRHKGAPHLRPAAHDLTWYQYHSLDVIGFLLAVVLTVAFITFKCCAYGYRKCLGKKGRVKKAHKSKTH

[3] = biological target: T2, UGT1*1 (Homo sapiens, UniProt P22309); conditions: for Km: substrate of UGT1*1; for binding to UGT1*1 compared with bilirubin: relative to the endogenous substrate bilirubin
T2 sequence (P22309 26-533): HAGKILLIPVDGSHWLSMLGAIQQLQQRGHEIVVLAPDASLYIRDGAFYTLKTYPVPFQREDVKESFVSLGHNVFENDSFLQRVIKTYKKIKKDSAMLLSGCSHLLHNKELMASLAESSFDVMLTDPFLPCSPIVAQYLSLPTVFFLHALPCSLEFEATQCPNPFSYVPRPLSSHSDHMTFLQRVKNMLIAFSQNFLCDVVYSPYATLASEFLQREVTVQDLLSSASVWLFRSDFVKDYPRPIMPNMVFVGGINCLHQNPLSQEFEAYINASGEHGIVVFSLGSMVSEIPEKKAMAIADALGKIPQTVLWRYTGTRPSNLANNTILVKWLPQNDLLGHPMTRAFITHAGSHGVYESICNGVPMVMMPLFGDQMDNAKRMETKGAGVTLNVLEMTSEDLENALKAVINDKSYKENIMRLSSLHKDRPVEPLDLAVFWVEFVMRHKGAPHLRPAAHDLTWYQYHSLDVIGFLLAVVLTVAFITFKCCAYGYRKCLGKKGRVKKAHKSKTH

Compound	Km [1] [µM]	Km [2] [µM]	Km [3] [µM]	binding to UGT1*1 compared with bilirubin [3]
CC(=O)Nc1ccc(O)cc1 [Acetaminophen]	2000	50000	–	–
O=C(O)[C@H]1O[C@H](OP(=O)(O)OP(=O)(O)OC[C@H]2O[C@@H](n3ccc(=O)[nH]c3=O)[C@H](O)[C@@H]2O)[C@H](O)[C@@H](O)[C@@H]1O [UDPGA]	–	410	410	–
C=CC1=C(C)/C(=C/c2[nH]c(Cc3[nH]c(/C=C4\NC(=O)C(C)=C4C=C)c(C)c3CCC(=O)O)c(CCC(=O)O)c2C)NC1=O [Bilirubin]	–	–	24	–
CC(C)c1cccc(C(C)C)c1O [Propofol]	–	172	–	–
CCCCCCCCOC(=O)c1cc(O)c(O)c(O)c1 [Octyl gallate]	–	158	162	more readily binds
Cc1cc(O)c2c(c1)C(=O)c1cc(O)cc(O)c1C2=O [emodin]	–	–	–	more readily binds
